Earlier results on one compound are cited in US20070218050A1, “Methods for treatment and prevention of otitis media using chemical penetration enhancers to facilitate transmembrane drug delivery into the middle ear” (Piedmont Pharmaceuticals LLC, priority 2005, published 2007).

The conditions of series [1]: concentrations at or in excess of 50% v/v, applied to the middle ear; Vassalli et al. 1988.
For series [2] the following is noted: round window membrane of the inner ear and cochlea; Marsh and Tom 1989.

As for `CC(O)CO` (centres unmarked) [propylene glycol], in series [1], the “Damage to the middle ear” value is reported as “produces inflammation-related damage to the middle ear”. Moreover, in series [2], the Inner ear ototoxicity result is “implicated in inner ear ototoxicity”.
